The target of experiment [1] is muscarinic cholinergic receptor. The experiment is classed as binding, rat. The note with it: rat cerebral cortex, ^3 H-QNB 0.25 nM, 25° C., 120 minutes, pH 7.4.
Experiment [2] has the same target. Briefly: [^3 H]-Cis-methyldioxolane (^3 H-CD) Binding Assay (High Affinity). The note with it: rat cerebral cortex, ^3 H-CD 1.0 nM, 25° C., 120 minutes, pH 7.4; high affinity agonist binding.

SMILES strings stand for the structures. Counter-ions that a name gives are not always drawn. Like-named read-outs stand apart in the source and are kept apart here. Some results are limits rather than exact numbers.

On to `C[N+](C)(C)CC#CCN1CC[C@@H](N=[N+]=[N-])C1=O` [(R)-4-(3-Azido-2-oxo-1-pyrrolidinyl)-N,N,N-trimethyl-2-butyn-1-aminium iodide], for which the Ki (as a rule, a measure of affinity in units of concentration, obtained from inhibition or displacement) was found to be 0.8 µM in experiment [1] and 0.039 µM in experiment [2].
`[N-]=[N+]=N[C@@H]1CCN(CC#CCN2CCCC2)C1=O` [(R)-3-Azido-1-[4-(1-pyrrolidinyl)-2-butynyl]-2-pyrrolidinone]: the Ki turned out to be 28 µM in experiment [1] and 0.21 µM in experiment [2].
Taken in the same sequence, the figures for `CC1(O)CCN(CC#CCN2CCCC2)C1=O` (racemic) [Racemic-3-Hydroxy-3-methyl-1-[4-(1-pyrrolidinyl)-2-butynyl]-2-pyrrolidinone, Racemic 3-hydroxy-3-methyl-1-[4-(1-pyrrolidinyl) 2-butynyl]-2-pyrrolidinone] were 8.6 µM and 5.7 µM.
Regarding `CC(C)C(=O)O[C@@H]1CCN(CC#CCN2CCCC2)C1=O` [(R)-2-Methylpropanoic acid 2-oxo-1-[4-(1-pyrrolidinyl)-2-butynyl]-3-pyrrolidinyl ester], the Ki in experiment [1] amounted to 87 µM; in experiment [2], 0.135 µM.
On the same counts, the results for `CC(C)(C)[Si](C)(C)O[C@@H]1CCN(CC#CCn2ccnc2)C1=O` [(R)-3-[[(1,1-Dimethylethyl)-dimethylsilyl]oxy]-1-[4-(1H-imidazol-1-yl)-2-butynyl]-2-pyrrolidinone] are over 100 µM and 14 µM.
Taken in the same sequence, the figures for `CC(C)(C)[Si](C)(C)OC[C@H]1CCCN1CC#CCN1CC[C@@H](O)C1=O` [[R-(R*,R*)]-1-[4-[2-[[[(1,1-Dimethylethyl)dimethylsilyl]-oxy]methyl]-1-pyrrolidinyl]-2-butynyl]-3-hydroxy-2-pyrrolidinone] were over 100 µM and 4.2 µM.
On the same counts, the results for `CC(=O)O[C@H]1CCN(CC#CCN(C)CCCCO)C1=O` [(S)-3-(Acetyloxy)-1-[4-[(4-hydroxybutyl)methylamino]-2-butynyl]-2-pyrrolidinone] are over 100 µM and 8.21 µM.
Consider `CCCCCCCCCC(=O)O[C@@H]1CCN(CC#CC[N+](C)(C)C)C1=O` [(R)-4-[2-Oxo-3-[(1-oxodecyl)-oxy]-1-pyrrolidinyl]-N,N, N-trimethyl-2-butyn-1-aminium iodide], for which the figures for the Ki in experiment [1] and in experiment [2] were 0.2 µM and 0.05 µM, respectively.
Take `[N-]=[N+]=N[C@H]1CCN(CC#CCN2CCCC2)C1=O` [(S)-3-Azido-1-[4-(1-pyrrolidinyl)-2-butynyl]-2-pyrrolidinone]: the Ki is 3.14 µM in experiment [1] and 0.16 µM in experiment [2].
Taken in the same sequence, the figures for `CCCCCCCCNC(=O)O[C@@H]1CCN(CC#CCN(C)C)C1=O` [(R)-Octylcarbamic acid 1-[4-(dimethylamino)-2-butynyl]-2-oxo-2-pyrrolidinyl ester] were 32 µM and 1.43 µM.
Consider `CN(CC#CCN1CC[C@H](O)C1=O)CCO` [(S)-3-Hydroxy-1-[4-[(2-hydroxyethyl)methylamino]-2-butynyl]-2-pyrrolidinone], for which the values for the Ki in experiment [1] and in experiment [2] were over 100 µM and 1.82 µM, respectively.
Taken in the same sequence, the figures for `C[C@@H]1CCN(CC#CCN(C)C)C1=O` [(R)-1-[4-(Dimethylamino)-2-butynyl]-3-methyl-2-pyrrolidinone] were 7.7 µM and 0.073 µM.
Take `COC(=O)O[C@@H]1CCN(CC#CCN2CCCC2)C1=O` [(R)-Carbonic acid methyl 2-oxo-1-[4-(1-pyrrolidinyl)-2-butynyl]-3-pyrrolidinyl ester]: the Ki in experiment [1] was 27.3 µM; in experiment [2] it was 0.35 µM.
As for `CCN(CC)CC#CCN1CCC(C)C1=O` (racemic) [Racemic 1-[4-(1-Diethylamino)-2-butynyl]-3-methyl-2-pyrrolidinone], the Ki in experiment [1] came out at 6 µM; in experiment [2], 5.1 µM.
In the case of `CCCCCCCCCC(=O)O[C@H]1CCN(CC#CCN(C)C)C1=O` [(S)-Decanoic acid 1-[4-(dimethylamino)2-butynyl]-2-oxo-3-pyrrolidinyl ester], the Ki in experiment [1] is 0.6 µM; in experiment [2] it was 0.023 µM.
On to `O=C1C(O)CCN1CC#CCn1ccnc1` (centres unmarked) [1-[4-(1H-Imidazol-1-yl)-2-butynyl]-3-hydroxy-2-pyrrolidinone], for which the Ki in experiment [1] is over 100 µM; in experiment [2] it was 2 µM.
On the same counts, the results for `O=C(OCc1ccccc1)O[C@@H]1CCN(CC#CCN2CCCC2)C1=O` [(R)-Carbonic acid 2-oxo-1-[4-(1-pyrrolidinyl)-2-butynyl]-3-pyrrolidinyl phenylmethyl ester] are 1.4 µM and 0.11 µM.
On to `CCCCCCCCCC(=O)O[C@H]1CC(=O)N(CC#CCN2CCCC2)C1` [(S)-Decanoic acid 2-oxo-1-[4-(1-pyrrolidinyl)-2-butynyl]-4-pyrrolidinyl ester], for which the Ki was 0.035 µM in experiment [1] and 0.33 µM in experiment [2].
Consider `CN(CC#CCN1CC[C@@H](O)C1=O)CCCCO` [(R)-3-Hydroxy-1-[4-[(4-hydroxybutyl)methylamino]-2-butynyl]-2-pyrrolidinone], for which the Ki in experiment [1] was over 100 µM; in experiment [2], 1.45 µM.
Taken in the same sequence, the figures for `CC(C)(C)[Si](C)(C)O[C@H]1CCN(CC#CCn2ccnc2)C1=O` [(S)-3-[[(1,1-Dimethylethyl)dimethylsilyl]oxy]-1-[4-(1H-imidazol-1-yl)-2-butynyl]-2-pyrrolidinone] were over 100 µM and 24.3 µM.
Taken in the same sequence, the figures for `CCCCCCCCNC(=O)O[C@H]1CC(=O)N(CC#CCN2CCCC2)C1` [(S)-Octylcarbamic acid 2-oxo-1-[4-(1-pyrrolidinyl)-2-butynyl]-4-pyrrolidinyl ester] were 0.13 µM and 0.35 µM.
For the molecule `COC(=O)O[C@H]1CC(=O)N(CC#CCN2CCCC2)C1` [(S)-Carbonic acid methyl 2-oxo-1-[4-(1-pyrrolidinyl)-2-butynyl]-4-pyrrolidinyl ester], the inhibitory constant (Ki) was determined as 1.8 µM in experiment [1] and 0.85 µM in experiment [2].
Turning to `CN(C)CC#CCN1CC[C@H](O[Si](C)(C)C(C)(C)C)C1=O` [(S)-1-[4-(Dimethylamino)-2-butynyl]-3-[[(1,1-dimethylethyl)-dimethylsilyl]oxy]-2-pyrrolidinone], the results for the Ki in experiment [1] and in experiment [2] were 14.3 µM and 18.2 µM, respectively.
Regarding `CCCCCCCCOC(=O)O[C@@H]1CCN(CC#CCN(C)C)C1=O` [(R)-Carbonic acid 1-[4-(dimethylamino)-2-butynyl]-2-oxo-3-pyrrolidinyl octyl ester], the Ki came to 1.5 µM in experiment [1] and 1.04 µM in experiment [2].
`CS[C@H]1CCN(CC#CC[N+](C)(C)C)C1=O` [(S)-N,N, N-Trimethyl-4-[3-(methylthio)-2-oxo1-pyrrolidinyl]-2-butyn-1-aminium iodide]: the Ki in experiment [1] was 1.8 µM; in experiment [2], 0.31 µM.
Taken in the same sequence, the figures for `CN(C)CC#CCN` [N,N-Dimethyl-2-butyne-1,4-diamine dihydrochloride] were over 100 µM and 20.5 µM.
For the molecule `CCCCCCCCCC(=O)O[C@@H]1CCN(CC#CCN2CCCC2)C1=O` [(R)-Decanoic acid 2-oxo-1-[4-(1-pyrrolidinyl)-2-butynyl]-3-pyrrolidinyl ester], the Ki in experiment [1] amounted to 0.2 µM; in experiment [2], 0.097 µM.
In the case of `CNC(=O)O[C@H]1CCN(CC#CCN2CCCC2)C1=O` [(S)-3-[[Methylamino)carbonyl]oxy]-1-[4-(1-pyrrolidinyl)-2-butynyl]-2-pyrrolidinone], the Ki in experiment [1] is 433 µM; in experiment [2] it was over 100 µM.

The record behind these values is patent US5637731A (priority 1996, dated 1997).
